33 substances from patent US20050060764A1, “Mouse model for bone metabolism” (priority 2003, published 2005) can be followed below.

Strand notation (5' to 3'): a small letter for the sugar, then the base; units joined by * are phosphorothioate-linked, units joined directly phosphodiester-linked; [ ] holds rarer units or linkages, { } end groups; capitals alone tell only the bases. e = 2'-O-(2-methoxyethyl) (MOE); [5mC] = 5-methylcytosine; d = 2'-deoxy (DNA)

The subject of this data set is mouse RANKL mRNA. The data set can be described thus: Antisense inhibition of mouse RANKL mRNA levels in C2C12 cells, quantitative real-time PCR (Table 2). The data set is classed as cell-based. On the set-up: concentration or dose not given beside the values. Conditions: averages from three experiments. The procedure: Cells were seeded into 24-well plates (Falcon-353047 at a density of ˜10,000 cells/cm^2 for use in antisense oligonucleotide transfection.
Cells are treated and data are obtained in triplicate. […] Cells were harvested 16-24 hours after oligonucleotide treatment.
PCR reagents were obtained from Invitrogen Corporation, (Carlsbad, Calif.).
Probes and primers to mouse RANKL were designed to hybridize to a mouse RANKL sequence, using published sequence information (GenBank accession number AF013170.1, incorporated herein as SEQ ID NO:ll). For mouse RANKL the PCR primers were: • forward primer: […] (SEQ ID NO:12) • reverse primer: […] (SEQ ID NO: 13) and • the PCR probe was: FAM-[…]-TAMRA (SEQ ID NO: 14) where FAM is the fluorescent reporter dye and TAMRA is the quencher dye. For mouse GAPDH the PCR primers were: • forward primer: […](SEQ ID NO:15) • reverse primer: […](SEQ ID NO:16) and the • PCR probe was: 5′ JOE-[…]-TAMRA 3′ (SEQ ID NO: 17) where JOE is the fluorescent reporter dye and TAMRA is the quencher dye.
In accordance with the present invention, a second series of antisense compounds was designed to target different regions of the mouse RANKL RNA, using published sequences (GenBank accession number AF013170.1, incorporated herein as SEQ ID NO: 11). […] All cytidine residues are 5-methylcytidines. […] If present “N.D.” indicates “no data”.
A general note: Real-time PCR tracks product formation cycle by cycle.
Turning to “180824 (antisense eT*eG*eT*e[5mC]*eA*dA*d[5mC]*dA*dG*dT*dG*dA*dG*dA*d[5mC]*eA*eT*eT*eT*eT) [compound 180824]”, the “% INHIB (inhibition of mouse RANKL mRNA levels)” value (from here on “% INHIB”) amounted to 29%.
Take “180825 (antisense eG*eT*eA*e[5mC]*eA*dT*dT*dT*dA*dA*dA*dA*d[5mC]*dA*dT*eT*eA*eA*eA*eT) [compound 180825]”: the “% INHIB” value is 25%.
With “agctgaagatagtctgtagg (antisense eA*eG*e[5mC]*eT*eG*dA*dA*dG*dA*dT*dA*dG*dT*d[5mC]*dT*eG*eT*eA*eG*eG) [ISIS 180808, 2′-MOE gapmer targeted to mouse RANKL]”, the “% INHIB” value is on record as “at least 40%”.
Take “180804 (antisense e[5mC]*eA*eG*eT*eT*d[5mC]*d[5mC]*dT*dT*d[5mC]*dT*dG*d[5mC]*dA*d[5mC]*eG*eG*e[5mC]*e[5mC]*e[5mC]) [compound 180804]”: the “% INHIB” value is 44%.
As to “180788 (antisense eG*eT*eT*e[5mC]*eA*d[5mC]*dA*dA*dA*dG*dG*dT*d[5mC]*d[5mC]*dT*eG*eG*e[5mC]*eA*eG) [compound 180788]”, the “% INHIB” value turned out to be 62%.
For the substance “180800 (antisense eA*e[5mC]*eA*eT*eG*dG*dA*dG*d[5mC]*dG*dG*dG*dA*dG*dG*e[5mC]*eG*eG*e[5mC]*eG) [compound 180800]”, the “% INHIB” value amounted to 54%.
Turning to “gccctgctccgcgatcgttc (antisense eG*e[5mC]*e[5mC]*e[5mC]*eT*dG*d[5mC]*dT*d[5mC]*d[5mC]*dG*d[5mC]*dG*dA*dT*e[5mC]*eG*eT*eT*e[5mC]) [ISIS 180793, 2′-MOE gapmer targeted to mouse RANKL]”, the “% INHIB” value was “at least 40%”.
As for “cctgacagatttcagtagcc (antisense e[5mC]*e[5mC]*eT*eG*eA*d[5mC]*dA*dG*dA*dT*dT*dT*d[5mC]*dA*dG*eT*eA*eG*e[5mC]*e[5mC]) [ISIS 180831, 2′-MOE gapmer targeted to mouse RANKL]”, the entry is “at least 40%”; as for “180799 (antisense e[5mC]*eG*eG*eG*eA*dG*dG*d[5mC]*dG*dG*d[5mC]*dG*dG*dG*dT*eG*eG*e[5mC]*eG*eG) [compound 180799]”, 52%; as for “gttcacaaaggtcctggcag (antisense eG*eT*eT*e[5mC]*eA*d[5mC]*dA*dA*dA*dG*dG*dT*d[5mC]*d[5mC]*dT*eG*eG*e[5mC]*eA*eG) [ISIS 180788, 2′-MOE gapmer targeted to mouse RANKL]”, “at least 40%”.
In the case of “180796 (antisense eT*e[5mC]*eG*eG*e[5mC]*dT*dG*dG*d[5mC]*d[5mC]*d[5mC]*dG*dG*d[5mC]*dG*e[5mC]*eA*eT*eG*eG) [compound 180796]”, the “% INHIB” value turned out to be 67%.
Regarding “180803 (antisense eT*e[5mC]*eT*eT*e[5mC]*dA*d[5mC]*dT*d[5mC]*dT*d[5mC]*d[5mC]*dA*dG*dA*eG*eT*e[5mC]*eG*eA) [compound 180803]”, the “% INHIB” value is 55%.
On to “180791 (antisense e[5mC]*e[5mC]*eG*e[5mC]*e[5mC]*dG*dA*dG*d[5mC]*dA*dG*dA*d[5mC]*dT*d[5mC]*e[5mC]*eG*e[5mC]*e[5mC]*eA) [compound 180791]”, for which the “% INHIB” value was 44%.
The value for “180818 (antisense eT*e[5mC]*eA*eG*eT*dG*dG*d[5mC]*dA*d[5mC]*dA*dT*dG*dT*d[5mC]*e[5mC]*eA*eG*eG*eG) [compound 180818]” was 59%; that for “tgctccgcgatcgttctctc (antisense eT*eG*e[5mC]*eT*e[5mC]*d[5mC]*dG*d[5mC]*dG*dA*dT*d[5mC]*dG*dT*dT*e[5mC]*eT*e[5mC]*eT*e[5mC]) [ISIS 180792, 2′-MOE gapmer targeted to mouse RANKL]” was “at least 40%”; that for “180829 (antisense eA*eA*eG*eG*e[5mC]*dA*d[5mC]*d[5mC]*dT*dG*dG*dT*dG*dA*d[5mC]*e[5mC]*eA*eA*e[5mC]*eA) [compound 180829]” was 23%.
“tttattttgcttgcatagtt (antisense eT*eT*eT*eA*eT*dT*dT*dT*dG*d[5mC]*dT*dT*dG*d[5mC]*dA*eT*eA*eG*eT*eT) [ISIS 180828, 2′-MOE gapmer targeted to mouse RANKL]”: the “% INHIB” value is “at least 40%”.
As for “aacatggagcgggaggcggc (antisense eA*eA*e[5mC]*eA*eT*dG*dG*dA*dG*d[5mC]*dG*dG*dG*dA*dG*eG*e[5mC]*eG*eG*e[5mC]) [ISIS 180801, 2′-MOE gapmer targeted to mouse RANKL]”, the entry is “at least 40%”; as for “tccggatccagcagggaagg (antisense eT*e[5mC]*e[5mC]*eG*eG*dA*dT*d[5mC]*d[5mC]*dA*dG*d[5mC]*dA*dG*dG*eG*eA*eA*eG*eG) [ISIS 180812, 2′-MOE gapmer targeted to mouse RANKL]”, “at least 40%”.
With “180821 (antisense e[5mC]*eA*eT*eT*eA*d[5mC]*dA*d[5mC]*d[5mC]*dT*dG*dA*dA*dA*dT*eA*eT*eA*eA*e[5mC]) [compound 180821]”, the “% INHIB” value worked out at 15%.
As for “atgctaatttcttcaccagc (antisense eA*eT*eG*e[5mC]*eT*dA*dA*dT*dT*dT*d[5mC]*dT*dT*d[5mC]*dA*e[5mC]*e[5mC]*eA*eG*e[5mC]) [ISIS 180811, 2′-MOE gapmer targeted to mouse RANKL]”, the “% INHIB” value was “at least 40%”.
The value for “180831 (antisense e[5mC]*e[5mC]*eT*eG*eA*d[5mC]*dA*dG*dA*dT*dT*dT*d[5mC]*dA*dG*eT*eA*eG*e[5mC]*e[5mC]) [compound 180831]” was 54%; that for “ccgccgagcagactccgcca (antisense e[5mC]*e[5mC]*eG*e[5mC]*e[5mC]*dG*dA*dG*d[5mC]*dA*dG*dA*d[5mC]*dT*d[5mC]*e[5mC]*eG*e[5mC]*e[5mC]*eA) [ISIS 180791, 2′-MOE gapmer targeted to mouse RANKL]” was “at least 40%”.
The value for “180792 (antisense eT*eG*e[5mC]*eT*e[5mC]*d[5mC]*dG*d[5mC]*dG*dA*dT*d[5mC]*dG*dT*dT*e[5mC]*eT*e[5mC]*eT*e[5mC]) [compound 180792]” was 77%; that for “180801 (antisense eA*eA*e[5mC]*eA*eT*dG*dG*dA*dG*d[5mC]*dG*dG*dG*dA*dG*eG*e[5mC]*eG*eG*e[5mC]) [compound 180801]” was 40%; that for “180832 (antisense eG*eG*eA*eA*eA*dA*dA*dA*dA*dA*dG*dA*dA*dA*d[5mC]*e[5mC]*eA*eA*eA*eA) [compound 180832]” was 0%.
Regarding “180805 (antisense eG*eG*e[5mC]*eT*eT*dG*d[5mC]*d[5mC]*dT*d[5mC]*dG*d[5mC]*dT*dG*dG*eG*e[5mC]*e[5mC]*eA*e[5mC]) [compound 180805]”, the “% INHIB” value was found to be 62%.
The value for “180820 (antisense e[5mC]*eT*eT*eA*eT*dT*dT*dG*d[5mC]*dA*dG*dG*dT*d[5mC]*d[5mC]*e[5mC]*eA*eG*e[5mC]*eG) [compound 180820]” was 44%; that for “gctggcccggcgcatggcgc (antisense eG*e[5mC]*eT*eG*eG*d[5mC]*d[5mC]*d[5mC]*dG*dG*d[5mC]*dG*d[5mC]*dA*dT*eG*eG*e[5mC]*eG*e[5mC]) [ISIS 180795, 2′-MOE gapmer targeted to mouse RANKL]” was “at least 40%”.
As for “cgggaggeggcgggtggcgg (antisense e[5mC]*eG*eG*eG*eA*dG*dG*d[5mC]*dG*dG*d[5mC]*dG*dG*dG*dT*eG*eG*e[5mC]*eG*eG) [ISIS 180799, 2′-MOE gapmer targeted to mouse RANKL]”, the entry is “at least 40%”.
For “cagttccttctgcacggccc (antisense e[5mC]*eA*eG*eT*eT*d[5mC]*d[5mC]*dT*dT*d[5mC]*dT*dG*d[5mC]*dA*d[5mC]*eG*eG*e[5mC]*e[5mC]*e[5mC]) [ISIS 180804, 2′-MOE gapmer targeted to mouse RANKL]”, the “% INHIB” value is “at least 40%”.
For “tcttcactctccagagtcga (antisense eT*e[5mC]*eT*eT*e[5mC]*dA*d[5mC]*dT*d[5mC]*dT*d[5mC]*d[5mC]*dA*dG*dA*eG*eT*e[5mC]*eG*eA) [ISIS 180803, 2′-MOE gapmer targeted to mouse RANKL]”, the “% INHIB” value is recorded as “at least 40%”.
The value for “tcagaattgcccgaccagtt (antisense eT*e[5mC]*eA*eG*eA*dA*dT*dT*dG*d[5mC]*d[5mC]*d[5mC]*dG*dA*d[5mC]*e[5mC]*eA*eG*eT*eT) [ISIS 180810, 2′-MOE gapmer targeted to mouse RANKL]” was “at least 40%”.
